The target in one assay is T1, RANBP2 RanBD1 4 (Homo sapiens, UniProt P49792).
T1 construct: GST (cleaved yes); made in house; host or cells: Escherichia coli BL21-Gold(DE3)
T1 sequence (P49792 2924-3050): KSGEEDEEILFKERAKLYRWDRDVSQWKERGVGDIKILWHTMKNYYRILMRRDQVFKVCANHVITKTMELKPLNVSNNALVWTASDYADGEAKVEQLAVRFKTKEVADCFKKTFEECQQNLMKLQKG
As to the kind of experiment: FP saturation experiment, RANBP2 RanBD1 4. The conditions noted are these: FP saturation (direct binding), 5 nM FITC-labelled peptide, 50 mM sodium phosphate pH 7.4, room temperature; at least technical triplicates; probe from this study; read-out: KD [µM] + SE. As to the method:
(§1) FP experiments were performed as described previously (Kliche et al, [2021]). Shortly, in order to monitor the binding event, FITC‐labelled peptides were used (excitation 495 nm, emission: 535 nm) and the FP signal was recorded in mP on a SpectraMax iD5 Multi‐Mode Microplate Reader (Molecular Devices) by measuring the emitted light in two angels. The measurements were performed at room temperature and prepared in nonbinding black half area 96‐well microplates (Corning®; 50 μl/well). For measuring direct binding, that is saturation curves, a 1:1 dilution series of protein domain (25 μl/well) was generated in 50 mM sodium phosphate buffer pH 7.4 and the measurement performed with 5 nM FITC‐labelled peptide (25 μl/well). The buffer‐corrected values were subsequently plotted with PRISM and fitted to the quadratic equation (Gianni et al, [2005]).

In another assay the target is T2, PDCD6IP Alix V domain (Homo sapiens, UniProt Q8WUM4).
T2 construct: GST (cleaved yes); made in house; host or cells: Escherichia coli BL21-Gold(DE3)
T2 sequence (Q8WUM4 360-702): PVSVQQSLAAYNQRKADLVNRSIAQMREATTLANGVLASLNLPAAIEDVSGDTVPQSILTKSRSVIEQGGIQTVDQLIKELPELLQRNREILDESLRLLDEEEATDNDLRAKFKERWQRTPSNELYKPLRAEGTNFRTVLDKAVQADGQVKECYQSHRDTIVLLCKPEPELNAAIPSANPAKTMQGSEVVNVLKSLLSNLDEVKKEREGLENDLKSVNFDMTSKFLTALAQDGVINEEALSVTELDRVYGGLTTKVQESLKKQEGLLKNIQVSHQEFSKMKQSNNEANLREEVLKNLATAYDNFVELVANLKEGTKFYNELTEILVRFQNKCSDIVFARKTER
Put plainly: FP saturation experiment, PDCD6IP Alix V domain. The conditions noted are these: FP saturation (direct binding), 5 nM FITC-labelled peptide, 50 mM sodium phosphate pH 7.4, room temperature; at least technical triplicates; reference for probe peptide RiboVD, Mihalič et al, to be published; read-out: KD [µM] + SE. As to the method:
as §1

Another assay deals with T3, GGA1 VHS (Homo sapiens, UniProt Q9UJY5).
T3 construct: GGA1_VHS__Q9UJY5_1_157; GST (cleaved yes); made in house; host or cells: Escherichia coli BL21-Gold(DE3)
T3 sequence (Q9UJY5 1-157): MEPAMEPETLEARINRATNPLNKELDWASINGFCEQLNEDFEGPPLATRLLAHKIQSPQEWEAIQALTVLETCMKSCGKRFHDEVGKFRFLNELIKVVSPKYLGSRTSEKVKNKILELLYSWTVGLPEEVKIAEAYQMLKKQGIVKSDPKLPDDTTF
Put plainly: FP saturation experiment, GGA1 VHS. As to conditions: FP saturation (direct binding), 5 nM FITC-labelled peptide, 50 mM sodium phosphate pH 7.4, room temperature; at least technical triplicates; reference for probe peptide RiboVD, Mihalič et al, to be published; read-out: KD [µM] + SE. As to the method: as §1

The target in the next assay is T4, KPNA4 ARM minor (Homo sapiens, UniProt O00629).
T4 construct: 60-487; GST (cleaved yes); made in house; host or cells: Escherichia coli BL21-Gold(DE3)
Put plainly: FP saturation experiment, KPNA4 ARM (minor). The conditions noted are these: FP saturation (direct binding), 5 nM FITC-labelled peptide, 50 mM sodium phosphate pH 7.4, room temperature; at least technical triplicates; reference for probe peptide PMID: 35044719; read-out: KD [µM] + SE. As to the method:
as §1

Residues, ends and D or L forms follow the SMILES beside them. *: point of attachment. FITC = O=C1OC2(c3ccc(O)cc3Oc3cc(O)ccc32)c2ccc(NC(=S)*)cc21

T4 sequence (O00629 60-487): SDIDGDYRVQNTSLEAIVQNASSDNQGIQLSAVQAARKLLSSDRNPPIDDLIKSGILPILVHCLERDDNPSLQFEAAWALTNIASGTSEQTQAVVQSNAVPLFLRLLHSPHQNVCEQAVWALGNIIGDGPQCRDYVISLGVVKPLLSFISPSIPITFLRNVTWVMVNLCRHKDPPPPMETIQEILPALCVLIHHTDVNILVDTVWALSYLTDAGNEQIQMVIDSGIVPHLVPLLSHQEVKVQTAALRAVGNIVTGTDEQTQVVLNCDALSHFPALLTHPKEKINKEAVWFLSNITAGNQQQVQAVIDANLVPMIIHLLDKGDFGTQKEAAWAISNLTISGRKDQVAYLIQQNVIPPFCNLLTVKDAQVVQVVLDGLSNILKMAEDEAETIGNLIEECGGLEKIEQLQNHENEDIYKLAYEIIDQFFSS

For the compound `CC(C)C[C@H](NC(=O)[C@H](C)NC(=O)[C@H](CCC(=O)O)NC(=O)[C@H](CCCCN)NC(=S)Nc1ccc2c(c1)C(=O)OC21c2ccc(O)cc2Oc2cc(O)ccc21)C(=O)N[C@@H](C)C(=O)N[C@H](C(=O)N1CCC[C@H]1C(=O)N[C@@H](CC(C)C)C(=O)N1CCC[C@H]1C(=O)N[C@@H](CCCCN)C(N)=O)[C@@H](C)O` [FITC-C7orf25] ({FITC}-KEALATPLPK-NH2), the Kd on RANBP2 RanBD1 4 was 22 ± 1 µM.

`CC(C)C[C@H](NC(=O)[C@H](CO)NC(=O)[C@@H](NC(=O)[C@H](CC(C)C)NC(=O)[C@@H]1CCCN1C(=O)[C@@H]1CCCN1C(=O)[C@H](Cc1ccc(O)cc1)NC(=O)[C@H](CC(C)C)NC(=O)[C@H](CO)NC(=S)Nc1ccc2c(c1)C(=O)OC21c2ccc(O)cc2Oc2cc(O)ccc21)[C@@H](C)O)C(=O)N[C@@H](CCCNC(=N)N)C(=O)O` [FITC-HIV1_Gag] ({FITC}-SLYPPLTSLR-OH): the Kd on PDCD6IP Alix V domain amounted to 3.6 ± 0.3 µM.

Consider `CC[C@H](C)[C@H](NC(=O)[C@H](Cc1c[nH]cn1)NC(=O)[C@H](CC(C)C)NC(=O)[C@H](CC(C)C)NC(=O)[C@H](CC(=O)O)NC(=O)[C@H](CCC(=O)O)NC(=O)[C@H](CC(=O)O)NC(=O)[C@H](CO)NC(=O)[C@H](CC(=O)O)NC(=O)[C@H](CC(=O)O)NC(=S)Nc1ccc2c(c1)C(=O)OC21c2ccc(O)cc2Oc2cc(O)ccc21)C(=O)O` [FITC-IGF2R] ({FITC}-DDSDEDLLHI-OH), for which the Kd on GGA1 VHS worked out at 31 ± 4 µM.

Turning to `CC[C@H](C)[C@H](NC(=O)[C@H](C)NC(=O)[C@H](CCCNC(=N)N)NC(=O)CNC(=O)[C@@H](NC(=O)[C@H](CCCNC(=N)N)NC(=O)CNC(=O)[C@H](CCC(=O)O)NC(=O)[C@H](CCSC)NC(=O)[C@H](CCSC)NC(=O)[C@H](CC(=O)O)NC(=O)[C@H](Cc1ccc(O)cc1)NC(=O)[C@@H](NC(=O)[C@H](CCCNC(=N)N)NC(=O)[C@H](CCCCN)NC(=O)[C@@H]1CCCN1C(=S)Nc1ccc2c(c1)C(=O)OC21c2ccc(O)cc2Oc2cc(O)ccc21)[C@@H](C)O)C(C)C)C(N)=O` [FITC-NCOR2] ({FITC}-PKRTYDMMEGRVGRAI-NH2), the Kd on KPNA4 ARM minor is 0.013 ± 0.0008 µM.

(Values after paper PMC10333884, “Large‐scale phosphomimetic screening identifies phospho‐modulated motif‐based protein interactions” (Molecular Systems Biology, 2023).)
